Calls of active or inactive are those of the source. No cut-off for these calls is given here.

Experiment [1] has as its target Heat shock protein beta-1 (Homo sapiens, UniProt P04792). The experiment is described as follows: Binding affinity to HSP27 (79 to 176 residues) (unknown origin) expressed in Escherichia coli BL21 (DE3) cells by HSQC NMR analysis. The settings on record: for Kd: read-out: Kd(app).
A short description of experiment [2]: Binding affinity to HSP27 C59A mutant (79 to 176 residues) (unknown origin) expressed in Escherichia coli BL21 (DE3) cells by HSQC NMR analysis. The settings on record: read-out: Kd(app). Also on record: species or system Homo sapiens.
A short description of experiment [3]: Binding affinity to HSP27 T61L mutant (79 to 176 residues) (unknown origin) expressed in Escherichia coli BL21 (DE3) cells by HSQC NMR analysis. Also on record: species or system Homo sapiens. The settings on record: read-out: Kd(app).
The nature of experiment [4]: Binding affinity to HSP27 L21A mutant (79 to 176 residues) (unknown origin) expressed in Escherichia coli BL21 (DE3) cells by HSQC NMR analysis. Also on record: species or system Homo sapiens. The settings on record: read-out: Kd(app).
Experiment [5] can be described thus: Binding affinity to HSP27 V23A mutant (79 to 176 residues) (unknown origin) expressed in Escherichia coli BL21 (DE3) cells by HSQC NMR analysis. Details: species or system Homo sapiens. The settings on record: read-out: Kd(app).
Experiment [6] is described as follows: Binding affinity to HSP27 I56A mutant (79 to 176 residues) (unknown origin) expressed in Escherichia coli BL21 (DE3) cells by HSQC NMR analysis. Details: species or system Homo sapiens. The settings on record: read-out: Kd(app).
Experiment [7] in a line: Binding affinity to HSP27 H46A mutant (79 to 176 residues) (unknown origin) expressed in Escherichia coli BL21 (DE3) cells by HSQC NMR analysis. Also on record: species or system Homo sapiens. The settings on record: read-out: Kd(app).

Heat shock protein beta-1, sequence (P04792 whole entry, the tested form may be a part): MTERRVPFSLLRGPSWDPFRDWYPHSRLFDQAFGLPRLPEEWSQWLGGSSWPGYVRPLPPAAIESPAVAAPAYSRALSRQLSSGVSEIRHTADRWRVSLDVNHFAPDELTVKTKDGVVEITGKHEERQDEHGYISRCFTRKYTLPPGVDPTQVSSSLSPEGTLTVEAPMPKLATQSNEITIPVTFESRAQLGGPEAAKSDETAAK

For `O=[N+]([O-])c1cc(Oc2ccc(F)cc2F)ccc1Oc1ccc(F)cc1F`, the “Kd(app)” value in experiment [1] is “inactive”.

Consider `O=[N+]([O-])c1cccnc1Oc1ccc(I)cc1`, for which the “Kd(app)” value in experiment [1] was “inactive”.

For `O=C(Oc1ccc(F)cc1F)c1ccc([N+](=O)[O-])cc1`, in experiment [1], the “Kd(app)” value was “inactive”.

Regarding `Nc1cccnc1Oc1ccc(F)cc1F`, in experiment [1], the Kd is above 1000 µM.

Turning to `O=[N+]([O-])c1cccnc1Oc1ccc(F)cc1F`, the Kd in experiment [1] was 177 µM.

`O=[N+]([O-])c1ccc(Oc2ccc(F)cc2F)c([N+](=O)[O-])c1`: the Kd was 67 µM in experiment [2]; 32 µM in experiment [3]; 42 µM in experiment [4]; 69 µM in experiment [5]; 63 µM in experiment [6]; 240 µM in experiment [7].

(Values after ChEMBL document CHEMBL4715914, “Chemical validation of a druggable site on Hsp27/HSPB1 using in silico solvent mapping and biophysical methods” (Bioorg Med Chem, 2021).)
